Literature values as cited in patent US11369575B2, “PPARα agonist compositions and methods of use” (The Board of Regents of the University of Oklahoma, priority 2019, dated 2022).

Details: free fenofibrate after IVT dosing

For `CC(C)OC(=O)C(C)(C)Oc1ccc(C(=O)c2ccc(Cl)cc2)cc1` [fenofibrate], the “time in which active drug levels disappear” value is given as “less than 1 week”.
